According to patent publication US20100137313A1 (ASTRAZENECA AB, priority 2008, published 2010):
Values after ≈ are worked out from the molar mass of the structure shown.

What was measured:
Spy 838 (gram+) = test: Bacterial susceptibility testing in liquid media (MIC); format: cell-based; conditions: Streptococcus pyogenes; lowest concentration reducing growth by 80% or more; 37° C., 24 hrs
Text: (§1) Compounds may be tested for antimicrobial activity by susceptibility testing in liquid media. Compounds may be dissolved in dimethylsulfoxide and tested in 10 doubling dilutions in the susceptibility assays. The organisms used in the assay may be grown overnight on suitable agar media and then suspended in a liquid medium appropriate for the growth of the organism. The suspension can be a 0.5 McFarland and a further 1 in 10 dilution can be made into the same liquid medium to prepare the final organism suspension in 100 μL. Plates can be incubated under appropriate conditions at 37° C. for 24 hrs prior to reading. The Minimum Inhibitory Concentration (MIC) may be determined as the lowest drug concentration able to reduce growth by 80% or more.

Mca 445 (gram−) = test: as above; format: cell-based; conditions: Moraxella catarrhalis; lowest concentration reducing growth by 80% or more; 37° C., 24 hrs
Text: as §1

Spn 548 (gram+) = test: as above; format: cell-based; conditions: Streptococcus pneumoniae; lowest concentration reducing growth by 80% or more; 37° C., 24 hrs
Text: as §1

[1] = molecular target: S. pneumoniae Topoisomerase IV ATPase (ParE) (Streptococcus pneumoniae serotype 4, UniProt Q59961); test: S. pneumoniae Topoisomerase IV ATPase inhibition; format: biochemical; conditions: values marked * are an average of two or more data points; for inhibition at 13 µM: read-out: % Inh (13 μM) of S. pneumoniae Topoisomerase IV ATPase
How it was run: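 Phosphate-release ATPase assay: 1.25 nM ParE, 160 μM ATP, DNA-stimulated. Quench with malachite green/molybdate in 1 M HCl, read 650 nm; IC50 from 10-point dose series.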

Chain of S. pneumoniae Topoisomerase IV ATPase (ParE) (Q59961 whole entry): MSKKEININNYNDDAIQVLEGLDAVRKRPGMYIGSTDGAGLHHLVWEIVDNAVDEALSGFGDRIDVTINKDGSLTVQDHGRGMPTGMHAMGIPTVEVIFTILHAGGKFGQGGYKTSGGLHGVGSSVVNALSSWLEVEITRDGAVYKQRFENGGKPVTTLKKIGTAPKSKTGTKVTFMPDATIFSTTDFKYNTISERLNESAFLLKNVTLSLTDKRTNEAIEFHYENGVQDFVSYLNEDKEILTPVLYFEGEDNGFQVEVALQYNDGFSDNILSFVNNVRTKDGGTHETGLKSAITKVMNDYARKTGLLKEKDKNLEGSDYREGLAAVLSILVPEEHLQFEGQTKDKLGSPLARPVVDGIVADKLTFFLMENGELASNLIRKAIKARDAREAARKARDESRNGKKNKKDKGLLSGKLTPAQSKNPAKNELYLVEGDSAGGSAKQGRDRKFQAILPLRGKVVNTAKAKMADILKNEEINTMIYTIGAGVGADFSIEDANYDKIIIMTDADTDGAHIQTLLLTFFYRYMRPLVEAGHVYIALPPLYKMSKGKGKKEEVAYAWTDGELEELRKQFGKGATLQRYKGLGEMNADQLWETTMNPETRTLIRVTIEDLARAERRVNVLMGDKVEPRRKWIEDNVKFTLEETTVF

| Compound | inhibition at 13 µM [1] | further results |
| --- | --- | --- |
| NCCCNc1nc(Nc2ccc(F)c(Cl)c2)ncc1-c1cncnc1 [Ex 211] | 76.6% | MIC (Spy 838 (gram+)): 25 µM (≈ 9.35 µg/mL); MIC (Mca 445 (gram−)): 12.5 µM (≈ 4.67 µg/mL); MIC (Spn 548 (gram+)): 25 µM (≈ 9.35 µg/mL) |
| Fc1ccc(Nc2ncc(-c3cncnc3)c(NCCc3ccncc3)n2)cc1Cl [Example 46, N^2-(3-chloro-4-fluorophenyl)-N^4-(2-pyridin-4-ylethyl)-5-pyrimidin-5-ylpyrimidine-2,4-diamine] | 93.5% | MIC (Spy 838 (gram+)): 8.84 µM (≈ 3.73 µg/mL); MIC (Mca 445 (gram−)): 3.13 µM (≈ 1.32 µg/mL); MIC (Spn 548 (gram+)): 3.13 µM (≈ 1.32 µg/mL) |
| O=C(O)c1ccc(-c2cnc(Nc3ccc(F)c(Cl)c3)nc2N2CCOCC2)s1 [Example 176, 5-(2-(3-chloro-4-fluorophenylamino)-4-morpholinopyrimidin-5-yl)thiophene-2-carboxylic acid] | 89% | MIC (Spy 838 (gram+)): 12.5 µM (≈ 5.44 µg/mL); MIC (Mca 445 (gram−)): 0.78 µM (≈ 0.339 µg/mL); MIC (Spn 548 (gram+)): 6.25 µM (≈ 2.72 µg/mL) |
| COc1cc(Nc2ncc(-c3cnc(OC)c(C(=O)NS(C)(=O)=O)c3)c(-n3ccc(C4CC4)n3)n2)cc(OC)c1 [Example 1152, 5-(4-(3-cyclopropyl-1H-pyrazol-1-yl)-2-(3,5-dimethoxyphenylamino)pyrimidin-5-yl)-2-methoxy-N-(methylsulfonyl)nicotinamide] | 100% | – |
| COc1cc(Nc2ncc(-c3cnc(OC)c(C(=O)NS(C)(=O)=O)c3)c(-n3nc(C(F)(F)F)nc3C)n2)cc(OC)c1 [Example 1153, 5-(2-(3,5-dimethoxyphenylamino)-4-(5-methyl-3-(trifluoromethyl)-1H-1,2,4-triazol-1-yl)pyrimidin-5-yl)-2-methoxy-N-(methylsulfonyl)nicotinamide] | 100% | – |
| O=C(O)/C=C/c1cncc(-c2cnc(Nc3ccc(F)c(Cl)c3)nc2-n2ccc(C(F)(F)F)n2)c1 [Example 1156, (E)-3-(5-(2-(3-chloro-4-fluorophenylamino)-4-(3-(trifluoromethyl)-1H-pyrazol-1-yl)pyrimidin-5-yl)pyridin-3-yl)acrylic acid] | 88% | – |
| COCCn1cc(-c2cnc(Nc3cc(OC)cc(OC)c3)nc2-n2ccc(C(F)(F)F)n2)cc(C(=O)O)c1=O [Example 1159] | 100% | – |
| COCCn1cc(-c2cnc(Nc3cc(OC)cc(OC)c3)nc2-n2nc(C(F)(F)F)cc2C)cc(C(=O)O)c1=O [Example 1160, 5-(2-(3,5-dimethoxyphenylamino)-4-(5-methyl-3-(trifluoromethyl)-1H-pyrazol-1-yl)pyrimidin-5-yl)-1-(2-methoxyethyl)-2-oxo-1,2-dihydropyridine-3-carboxylic acid] | 100% | – |
| COCCn1cc(-c2cnc(Nc3cc(OC)cc(OC)c3)nc2-n2nc(C(F)(F)F)cc2C)cc(C(=O)NS(C)(=O)=O)c1=O [Example 1161, 5-(2-(3,5-dimethoxyphenylamino)-4-(5-methyl-3-(trifluoromethyl)-1H-pyrazol-1-yl)pyrimidin-5-yl)-1-(2-methoxyethyl)-N-(methylsulfonyl)-2-oxo-1,2-dihydropyridine-3-carboxamide] | 81% | – |
| CCS(=O)(=O)NC(=O)c1cc(-c2cnc(Nc3cc(OC)cc(OC)c3)nc2-n2nc(C(F)(F)F)cc2C)cn(CCOC)c1=O [Example 1162, 5-(2-(3,5-dimethoxyphenylamino)-4-(5-methyl-3-(trifluoromethyl)-1H-pyrazol-1-yl)pyrimidin-5-yl)-N-(ethylsulfonyl)-1-(2-methoxyethyl)-2-oxo-1,2-dihydropyridiine-3-carboxamide] | 100% | – |
| COCCn1cc(-c2cnc(Nc3cc(OC)cc(OC)c3)nc2-n2ccc(C(F)(F)F)n2)cc(C(=O)NS(C)(=O)=O)c1=O [Example 1163, 5-(2-(3,5-dimethoxyphenylamino)-4-(3-(trifluoromethyl)-1H-pyrazol-1-yl)pyrimidin-5-yl)-1-(2-methoxyethyl)-N-(methylsulfonyl)-2-oxo-1,2-dihydropyridine-3-carboxamide] | 100% | – |
| CCS(=O)(=O)NC(=O)c1cc(-c2cnc(Nc3cc(OC)cc(OC)c3)nc2-n2ccc(C(F)(F)F)n2)cn(CCOC)c1=O [Example 1164] | 100% | – |
| Cc1cc(C)cc(Nc2ncc(-c3cc(C(=O)O)c(=O)n(C)c3)c(-n3nc(C(F)(F)F)cc3C)n2)c1 [Example 1166, 5-(2-(3,5-dimethylphenylamino)-4-(5-methyl-3-(trifluoromethyl)-1H-pyrazol-1-yl)pyrimidin-5-yl)-1-methyl-2-oxo-1,2-dihydropyridine-3-carboxylic acid] | 100% | – |
| COc1cc(Nc2ncc(-c3cnc(OC)c(C(=O)NOCCN4CCOCC4)c3)c(-n3ccc(C(F)(F)F)n3)n2)cc(OC)c1 [Example 1167, 5-(2-(3,5-dimethoxyphenylamino)-4-(3-(trifluoromethyl)-1H-pyrazol-1-yl)pyrimidin-5-yl)-2-methoxy-N-(2-morpholinoethoxy)nicotinamide] | 100% | – |
| COCCONC(=O)c1cc(-c2cnc(Nc3cc(OC)cc(OC)c3)nc2-n2ccc(C(F)(F)F)n2)cnc1OC [Example 1168, 5-(2-(3,5-dimethoxyphenylamino)-4-(3-(trifluoromethyl)-1H-pyrazol-1-yl)pyrimidin-5-yl)-2-methoxy-N-(2-methoxyethoxy)nicotinamide] | 100% | – |
| COc1cc(C)cc(Nc2ncc(-c3cnc(OC)c(-c4n[nH]c(=O)o4)c3)c(-n3ccc(C(F)(F)F)n3)n2)c1 [Example 1169, 5-(2-methoxy-5-{2-[(3-methoxy-5-methylphenyl)amino]-4-[3-(trifluoromethyl)-1H-pyrazol-1-yl]pyrimidin-5-yl}pyridin-3-yl)-1,3,4-oxadiazol-2(3H)-one] | 100% | – |
| COc1cc(C)cc(Nc2ncc(-c3cnc(OC)c(-c4n[nH]c(=O)o4)c3)c(-n3nc(C(F)(F)F)cc3C)n2)c1 [Example 1170, 5-(2-methoxy-5-{2-[(3-methoxy-5-methylphenyl)amino]-4-[5-methyl-3-(trifluoromethyl)-1H-pyrazol-1-yl]pyrimidin-5-yl}pyridin-3-yl)-1,3,4-oxadiazol-2(3H)-one] | 100% | – |
| CCn1cc(-c2cnc(Nc3cc(C)cc(OC)c3)nc2-n2ccc(C(F)(F)F)n2)cc(C(=O)O)c1=O [Example 1172, 1-ethyl-5-{2-[(3-methoxy-5-methylphenyl)amino]-4-[3-(trifluoromethyl)-1H-pyrazol-1-yl]pyrimidin-5-yl}-2-oxo-1,2-dihydropyridine-3-carboxylic acid] | 100% | – |
| COc1cc(C)cc(Nc2ncc(-c3cc(C(=O)NS(C)(=O)=O)c(=O)n(C)c3)c(-n3ccc(C(F)(F)F)n3)n2)c1 [Example 1173, 5-{2-[(3-methoxy-5-methylphenyl)amino]-4-[3-(trifluoromethyl)-1H-pyrazol-1-yl]pyrimidin-5-yl}-1-methyl-N-(methylsulfonyl)-2-oxo-1,2-dihydropyridine-3-carboxamide] | 100% | – |
| COc1cc(C)cc(Nc2ncc(-c3cc(C(=O)NS(C)(=O)=O)c(=O)n(C)c3)c(-n3nc(C(F)(F)F)cc3C)n2)c1 [Example 1174, 5-{2-[(3-methoxy-5-methylphenyl)amino]-4-[5-methyl-3-(trifluoromethyl)-1H-pyrazol-1-yl]pyrimidin-5-yl}-1-methyl-N-(methylsulfonyl)-2-oxo-1,2-dihydropyridine-3-carboxamide] | 100% | – |
| CCn1cc(-c2cnc(Nc3cc(C)cc(OC)c3)nc2-n2ccc(C(F)(F)F)n2)cc(C(=O)NS(C)(=O)=O)c1=O [Example 1175, 1-ethyl-5-{2-[(3-methoxy-5-methylphenyl)amino]-4-[3-(trifluoromethyl)-1H-pyrazol-1-yl]pyrimidin-5-yl}-N-(methylsulfonyl)-2-oxo-1,2-dihydropyridine-3-carboxamide] | 99% | – |
| CCn1cc(-c2cnc(Nc3cc(C)cc(OC)c3)nc2-n2nc(C(F)(F)F)cc2C)cc(C(=O)NS(C)(=O)=O)c1=O [Example 1176, 1-ethyl-5-{2-[(3-methoxy-5-methylphenyl)amino]-4-[5-methyl-3-(trifluoromethyl)-1H-pyrazol-1-yl]pyrimidin-5-yl}-N-(methylsulfonyl)-2-oxo-1,2-dihydropyridine-3-carboxamide] | 100% | – |
| COc1cc(Nc2ncc(-c3cncc(C(=O)O)c3)c(-n3nc(C(F)F)cc3C)n2)cc(OC)c1 [Intermediate 1126, 5-(4-(3-(difluoromethyl)-5-methyl-1H-pyrazol-1-yl)-2-(3,5-dimethoxyphenylamino)pyrimidin-5-yl)nicotinic acid] | 100% | – |
| (E)-3-{3-[2-(3- Methoxy-5- tetrazol-1-yl- phenylamino)- 4-morpholin-4- yl-pyrimnidin-5- yl]-phenyl}- acrylic acid [Example 406] | – | % Inh (13 μM) of S. pneumoniae Topoisomerase IV ATPase [1]: 99% |
